Experimental findings from US9732119B2, “Immunomodulators” (BRISTOL-MYERS SQUIBB COMPANY, priority 2014, dated 2017) are described below.

The assay addresses T1, PD-1-Ig binding to PD-L1-TVMV-His (PD-L1-His) (Homo sapiens, UniProt Q9NZQ7).
T1 construct: hPDL1(19-239)-TVMV-His; made in house; host or cells: HEK293T cells
Put plainly: PD-1/PD-L1 Homogenous Time-Resolved Fluorescence (HTRF) binding assay. The following applies: PD-1-Ig (20 nM) / PD-L1-His (10 nM). Summed up:
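HTRF competition: compound pre-incubated 15 min with PD-L1-His (10 nM final), then PD-1-Ig (20 nM final) added for 15 min in dPBS, 0.1% BSA, 0.05% Tween-20. Detection with Eu-cryptate anti-Ig (1 nM) and APC anti-His (20 nM) antibodies.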

T1 sequence (Q9NZQ7 with tags, fused parts or gaps): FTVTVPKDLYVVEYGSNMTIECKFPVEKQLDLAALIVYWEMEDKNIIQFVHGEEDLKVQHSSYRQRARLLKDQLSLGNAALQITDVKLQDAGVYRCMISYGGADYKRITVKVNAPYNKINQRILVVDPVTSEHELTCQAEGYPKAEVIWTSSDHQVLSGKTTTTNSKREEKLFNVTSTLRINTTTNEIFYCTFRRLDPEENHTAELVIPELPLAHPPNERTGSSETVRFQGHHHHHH

One may read the IC50 as the concentration needed to halve the response being measured. Read a high IC50 as weaker potency. On to `CCCC[C@H]1C(=O)N(C)[C@@H](CCCC)C(=O)N[C@@H](CC(C)C)C(=O)N[C@H](C(=O)NCC(N)=O)CNCC(=O)N[C@@H](Cc2ccc(O)cc2)C(=O)N(C)[C@@H](C)C(=O)N[C@@H](CC(N)=O)C(=O)N2CCC[C@H]2C(=O)N[C@@H](Cc2cnc[nH]2)C(=O)N[C@@H](CCC(N)=O)C(=O)N2C[C@H](O)C[C@H]2C(=O)N[C@@H](Cc2c[nH]c3ccccc23)C(=O)N[C@@H](CO)C(=O)N[C@@H](Cc2c[nH]c3ccccc23)C(=O)N1C` [Example 10004], for which, for the setting “range classes”, the IC50 was 1 to 9.9 nM.

Under “numeric values”, `C=C(C)C[C@@H]1NC(=O)[C@H](C)N(C)C(=O)[C@H](Cc2ccccc2)NC(=O)CNC[C@@H](C(=O)NCC(N)=O)NC(=O)[C@H](CC(C)C)NC(=O)[C@H](CCCC)N(C)C(=O)[C@H](CCCC)N(C)C(=O)[C@H](Cc2c[nH]c3ccccc23)NC(=O)[C@H](CC(C)C)NC(=O)[C@H](Cc2c[nH]c3ccccc23)NC(=O)[C@@H]2CCCN2C(=O)[C@H](CC(C)C)NC(=O)[C@H](CC(C)C)NC(=O)[C@@H]2CCCN2C1=O` [Example 10005] displayed a half-maximal inhibitory concentration (IC50) of 10000 nM.

Consider `CCCC[C@H]1C(=O)N(C)[C@@H](CCCC)C(=O)N[C@@H](CC(C)C)C(=O)N[C@H](C(=O)NCC(N)=O)CNCC(=O)N[C@@H](Cc2ccc(O)cc2)C(=O)N(C)[C@@H](C)C(=O)N[C@@H](CC(N)=O)C(=O)N2CCC[C@H]2C(=O)N[C@@H](Cc2cnc[nH]2)C(=O)N[C@@H](CC(C)C)C(=O)N2CCC[C@H]2C(=O)N[C@@H](Cc2c[nH]c3ccccc23)C(=O)N[C@@H](CO)C(=O)N[C@@H](Cc2cn(CC(=O)O)c3ccccc23)C(=O)N1C` [Example 10006], for which, where the note is “range classes”, the IC50 is 10 to 99 nM.

As for `CCCC[C@H]1C(=O)N(C)[C@@H](CCCC)C(=O)N[C@@H](CC(C)C)C(=O)N[C@H](C(=O)NCC(N)=O)CNCC(=O)N[C@@H](Cc2ccc(O)cc2)C(=O)N(C)[C@@H](C)C(=O)N[C@@H](CC(N)=O)C(=O)N2CCC[C@H]2C(=O)N[C@@H](Cc2cnc[nH]2)C(=O)N[C@@H](CC(C)C)C(=O)N2C[C@H](O)C[C@H]2C(=O)N[C@@H](Cc2c[nH]c3ccccc23)C(=O)N[C@@H](CO)C(=O)N[C@@H](Cc2cn(CC(=O)O)c3ccccc23)C(=O)N1C` [Example 10007], the IC50 (range classes) lay in the range of 1 to 9.9 nM.

For the setting “range classes”, `CCCC[C@H]1C(=O)N(C)[C@@H](CCCC)C(=O)N[C@@H](CC(C)C)C(=O)N[C@H](C(=O)NCC(N)=O)CNCC(=O)N[C@@H](Cc2ccc(O)cc2)C(=O)N(C)[C@@H](C)C(=O)N[C@@H](CC(N)=O)C(=O)N2CCC[C@H]2C(=O)N[C@@H](Cc2cnc[nH]2)C(=O)N[C@@H](CCC(N)=O)C(=O)N2C[C@H](O)C[C@H]2C(=O)N[C@@H](Cc2c[nH]c3ccccc23)C(=O)N[C@@H](CO)C(=O)N[C@@H](Cc2cn(CC(=O)O)c3ccccc23)C(=O)N1C` [Example 10008] showed an IC50 of 1 to 9.9 nM.

Take `CCCC[C@H]1C(=O)N(C)[C@@H](CCCC)C(=O)N[C@@H](CC(C)C)C(=O)N[C@H](C(=O)NCC(N)=O)CCNCC(=O)N[C@@H](Cc2ccccc2)C(=O)N(C)[C@@H](C)C(=O)N[C@@H](CC(C)C)C(=O)N2CCC[C@H]2C(=O)N[C@@H](CC(C)C)C(=O)N[C@@H](CC(C)C)C(=O)N2CCC[C@H]2C(=O)N[C@@H](Cc2c[nH]c3ccccc23)C(=O)N[C@@H](CC(C)C)C(=O)N[C@@H](Cc2c[nH]c3ccccc23)C(=O)N1C` [Example 10009]: the IC50 (range classes) was in the range of 100 to 10000 nM.

As for `CCCC[C@H]1C(=O)N(C)[C@@H](CCCC)C(=O)N[C@@H](CC(C)C)C(=O)N[C@H](C(=O)NCC(N)=O)CCCNCC(=O)N[C@@H](Cc2ccccc2)C(=O)N(C)[C@@H](C)C(=O)N[C@@H](CC(C)C)C(=O)N2CCC[C@H]2C(=O)N[C@@H](CC(C)C)C(=O)N[C@@H](CC(C)C)C(=O)N2CCC[C@H]2C(=O)N[C@@H](Cc2c[nH]c3ccccc23)C(=O)N[C@@H](CC(C)C)C(=O)N[C@@H](Cc2c[nH]c3ccccc23)C(=O)N1C` [Example 10010], the IC50 (range classes) was 100 to 10000 nM.

Compound `CCCC[C@H]1C(=O)N(C)[C@@H](CCCC)C(=O)N[C@@H](C)C(=O)N[C@H](C(=O)NCC(N)=O)CNCC(=O)N[C@@H](Cc2ccc(O)cc2)C(=O)N(C)[C@@H](C)C(=O)N[C@@H](CC(=O)O)C(=O)N2CCC[C@H]2C(=O)N[C@@H](Cc2cnc[nH]2)C(=O)N[C@@H](CCC(N)=O)C(=O)N2C[C@H](O)C[C@H]2C(=O)N[C@@H](Cc2c[nH]c3ccccc23)C(=O)N[C@@H](CO)C(=O)N[C@@H](Cc2c[nH]c3ccccc23)C(=O)N1C` [Example 10011] gave an IC50 (range classes) of 1 to 9.9 nM.

As for `CCCC[C@H]1C(=O)N(C)[C@@H](CCCC)C(=O)N[C@@H](C)C(=O)N[C@H](C(=O)NCC(N)=O)CCNCC(=O)N[C@@H](Cc2ccc(O)cc2)C(=O)N(C)[C@@H](C)C(=O)N[C@@H](CC(=O)O)C(=O)N2CCC[C@H]2C(=O)N[C@@H](Cc2cnc[nH]2)C(=O)N[C@@H](CCC(N)=O)C(=O)N2C[C@H](O)C[C@H]2C(=O)N[C@@H](Cc2c[nH]c3ccccc23)C(=O)N[C@@H](CO)C(=O)N[C@@H](Cc2c[nH]c3ccccc23)C(=O)N1C` [Example 10012], the half-inhibitory concentration (IC50) (range classes) was 10 to 99 nM.

With `CCCC[C@H]1C(=O)N(C)[C@@H](CCCC)C(=O)N[C@@H](C)C(=O)N[C@H](C(=O)NCC(N)=O)CCCNCC(=O)N[C@@H](Cc2ccc(O)cc2)C(=O)N(C)[C@@H](C)C(=O)N[C@@H](CC(=O)O)C(=O)N2CCC[C@H]2C(=O)N[C@@H](Cc2cnc[nH]2)C(=O)N[C@@H](CCC(N)=O)C(=O)N2C[C@H](O)C[C@H]2C(=O)N[C@@H](Cc2c[nH]c3ccccc23)C(=O)N[C@@H](CO)C(=O)N[C@@H](Cc2c[nH]c3ccccc23)C(=O)N1C` [Example 10013], the IC50 (numeric values) is 70 nM.

The compound `CCCC[C@H]1C(=O)N(C)[C@@H](CCCC)C(=O)N[C@@H](C)C(=O)N[C@H](C(=O)NCC(N)=O)CNCC(=O)N[C@@H](Cc2ccc(O)cc2)C(=O)N(C)[C@@H](C)C(=O)N[C@@H](CC(=O)O)C(=O)N2CCC[C@H]2C(=O)N[C@@H](Cc2cnc[nH]2)C(=O)N[C@@H](CCC(N)=O)C(=O)N2C[C@H](O)C[C@H]2C(=O)N[C@@H](Cc2c[nH]c3ccccc23)C(=O)N[C@@H](CO)C(=O)N[C@@H](Cc2cn(CC(=O)O)c3ccccc23)C(=O)N1C` [Example 10014] had a half-maximal inhibitory concentration (IC50) (range classes) of 1 to 9.9 nM.

Compound `CCCC[C@H]1C(=O)N(C)[C@@H](CCCC)C(=O)N[C@@H](C)C(=O)N[C@H](C(=O)NCC(N)=O)CCNCC(=O)N[C@@H](Cc2ccc(O)cc2)C(=O)N(C)[C@@H](C)C(=O)N[C@@H](CC(=O)O)C(=O)N2CCC[C@H]2C(=O)N[C@@H](Cc2cnc[nH]2)C(=O)N[C@@H](CCC(N)=O)C(=O)N2C[C@H](O)C[C@H]2C(=O)N[C@@H](Cc2c[nH]c3ccccc23)C(=O)N[C@@H](CO)C(=O)N[C@@H](Cc2cn(CC(=O)O)c3ccccc23)C(=O)N1C` [Example 10015] returned an IC50 (range classes) of 1 to 9.9 nM.

With `CCCC[C@H]1C(=O)N(C)[C@@H](CCCC)C(=O)N[C@@H](C)C(=O)N[C@H](C(=O)NCC(N)=O)CCCNCC(=O)N[C@@H](Cc2ccc(O)cc2)C(=O)N(C)[C@@H](C)C(=O)N[C@@H](CC(=O)O)C(=O)N2CCC[C@H]2C(=O)N[C@@H](Cc2cnc[nH]2)C(=O)N[C@@H](CCC(N)=O)C(=O)N2C[C@H](O)C[C@H]2C(=O)N[C@@H](Cc2c[nH]c3ccccc23)C(=O)N[C@@H](CO)C(=O)N[C@@H](Cc2cn(CC(=O)O)c3ccccc23)C(=O)N1C` [Example 10016], the 50% inhibitory concentration (IC50) (range classes) was in the range of 1 to 9.9 nM.

For the compound `CCCC[C@H]1C(=O)N(C)[C@@H](CCCC)C(=O)N[C@@H](CC(C)C)C(=O)N[C@H](C(=O)NCC(N)=O)CNCC(=O)N[C@@H](Cc2ccc(O)cc2)C(=O)N(C)[C@@H](C)C(=O)N[C@@H](CC(N)=O)C(=O)N2CCC[C@H]2C(=O)N[C@@H](Cc2cnc[nH]2)C(=O)N[C@@H](CCC(N)=O)C(=O)N2C[C@H](O)C[C@H]2C(=O)N[C@@H](Cc2c[nH]c3ccccc23)C(=O)NCC(=O)N[C@@H](Cc2c[nH]c3ccccc23)C(=O)N1C` [Example 10017], the 50% inhibitory concentration (IC50) (range classes) fell in the range of 1 to 9.9 nM.

Compound `CCCC[C@H]1C(=O)N(C)[C@@H](CCCC)C(=O)N[C@@H](CC(C)C)C(=O)N[C@H](C(=O)NCC(N)=O)CCNCC(=O)N[C@@H](Cc2ccc(O)cc2)C(=O)N(C)[C@@H](C)C(=O)N[C@@H](CC(N)=O)C(=O)N2CCC[C@H]2C(=O)N[C@@H](Cc2cnc[nH]2)C(=O)N[C@@H](CCC(N)=O)C(=O)N2C[C@H](O)C[C@H]2C(=O)N[C@@H](Cc2c[nH]c3ccccc23)C(=O)NCC(=O)N[C@@H](Cc2c[nH]c3ccccc23)C(=O)N1C` [Example 10018] displayed an IC50 (range classes) of 10 to 99 nM.

Where the note is “range classes”, `CCCC[C@H]1C(=O)N(C)[C@@H](CCCC)C(=O)N[C@@H](CC(C)C)C(=O)N[C@H](C(=O)NCC(N)=O)CCCNCC(=O)N[C@@H](Cc2ccc(O)cc2)C(=O)N(C)[C@@H](C)C(=O)N[C@@H](CC(N)=O)C(=O)N2CCC[C@H]2C(=O)N[C@@H](Cc2cnc[nH]2)C(=O)N[C@@H](CCC(N)=O)C(=O)N2C[C@H](O)C[C@H]2C(=O)N[C@@H](Cc2c[nH]c3ccccc23)C(=O)NCC(=O)N[C@@H](Cc2c[nH]c3ccccc23)C(=O)N1C` [Example 10019] came in with an IC50 of 100 to 10000 nM.

`CCCC[C@H]1C(=O)N(C)[C@@H](CCCC)C(=O)N[C@@H](CC(C)C)C(=O)N[C@H](C(=O)NCC(N)=O)CNCC(=O)N[C@@H](Cc2ccc(O)cc2)C(=O)N(C)[C@@H](C)C(=O)N[C@@H](CC(N)=O)C(=O)N2CCC[C@H]2C(=O)N[C@@H](Cc2cnc[nH]2)C(=O)N[C@@H](CCC(N)=O)C(=O)N2C[C@H](O)C[C@H]2C(=O)N[C@@H](Cc2c[nH]c3ccccc23)C(=O)NCC(=O)N[C@@H](Cc2cn(CC(=O)O)c3ccccc23)C(=O)N1C` [Example 10020] showed a half-maximal inhibitory concentration (IC50) (range classes) of 10 to 99 nM.

In turn, `CCCC[C@H]1C(=O)N(C)[C@@H](CCCC)C(=O)N[C@@H](CC(C)C)C(=O)N[C@H](C(=O)NCC(N)=O)CCNCC(=O)N[C@@H](Cc2ccc(O)cc2)C(=O)N(C)[C@@H](C)C(=O)N[C@@H](CC(N)=O)C(=O)N2CCC[C@H]2C(=O)N[C@@H](Cc2cnc[nH]2)C(=O)N[C@@H](CCC(N)=O)C(=O)N2C[C@H](O)C[C@H]2C(=O)N[C@@H](Cc2c[nH]c3ccccc23)C(=O)NCC(=O)N[C@@H](Cc2cn(CC(=O)O)c3ccccc23)C(=O)N1C` [Example 10021] yielded a concentration for half-maximal inhibition (IC50) (range classes) of 10 to 99 nM.
